Measured values as given in publication PMC11802874, “The hypolipidemic effect of MI-883, the combined CAR agonist/ PXR antagonist, in diet-induced hypercholesterolemia model” (Nature Communications, 2025).
“And” between values parts separate entries of the source, which are not always exact repeats. Identical values can stand only once.

Assays:
[1] = Metabolic stability in human liver S9 fraction
Description: (§1) Shimadzu HPLC system including vacuum degasser, gradient pumps, reverse phase HPLC column, column oven, and autosampler with an API 4000 QTRAP mass spectrometer (Applied Biosystems/MDS Sciex (AB Sciex) with Turbo V ion source and TurboIonspray interface were used. The reference compound midazolam, which is metabolized both by phase I and phase II enzymes, was used. The elimination constant (kel), half-life (t1/2), and intrinsic clearance (Clint) were determined[19] (Table S1).
Supplementary Figure 1. […] Test compounds (1 μM, final DMSO concentration 1%) were incubated at 37 °C with shaking at 100 rpm. Four time points over 120 minutes have been analyzed. The reactions were stopped by adding 420 μL of acetonitrile-water mixture (90:10). Supernatants were analyzed by the HPLC system coupled with a tandem mass spectrometer. The percentage (in % of initial concertation) of the test compounds remaining after incubation in plasma and their half-lives (t1/2) were calculated. […] The stability of the compound was tested in human liver S9 fraction. Cofactors were used such as UDPGA (for glucuronidation), PAPS (for sulfation), and reduced glutathione (for conjugation of GSH). Compounds were tested in triplicate with or without NADPH. Propantheline and midazolam were used as unstable control compounds in the experiments. Data represent the means±S.D. from at least three independent samples.

[2] = Metabolic stability in mouse liver S9 fraction; conditions: male, CD-1, mouse, s9
Description: as §1

HepaRG KO CAR cells = assay: RT-qPCR mRNA expression in HepaRG KO CAR cells; format: cell-based, human; conditions: Phenobarbital 500 μM, CITCO 1 μM, MI 883 1 μM; ctrl = 1
Description: (§2) HepaRG cells from Biopredic (Rennes, France) were cultivated and differentiated on the 12-well plates. […] Several batches of HepaRG KO CAR (CAR Knockout HepaRG™ Cells, MTOX1012-1VL, RRID:CVCL_B6AA) and PXR Knockout HepaRG™ Cells, MTOX1011-1VL, RRID:CVCL_B6AS) cells have been obtained from Sigma-Aldrich/Merck (Darmstadt, Germany) and cultivated according to the provider’s protocols. […] Experiments with HepaRG KO PXR and HepaRG KO CAR cells have been performed in duplicates at least in two independent experiments.
(§3) RT-qPCR was used to examine gene expression in 2D and 3D PHH, HepaRG cells, or in mouse liver or intestine (ileum) samples as we have described before[60]–[62].
(§4) All qRT-qPCR experiments including Trizol reagent (Life Technologies) total RNA isolation, reverse-transcription using a random hexaprimer, and the MMLV Reverse Transcriptase Kit (ThermoFisher Scientific) we have described before^19. qPCR was performed using TaqMan Fast Advanced Master Mix with TaqMan probes (ThermoFisher Scientific). […] The delta-delta method was used for gene expression quantification normalized to at least two reference genes. Three technical replicates were used for each reaction considering the MIQE guidelines. Data are presented as fold induction to vehicle-treated cells/animals.

[3] = system: LS174T cells (endogenous PXR); assay: CYP3A4 mRNA RT-qPCR in LS174T cells
Description: LS174T human colon adenocarcinoma cells (RRID:CVCL_1384) were used in induction experiments with the subsequent CYP3A4 mRNA RT-qPCR analysis as they express functional endogenous PXR.

[4] = system: PXR-responsive CYP3A4(pER6)-luc construct; assay: CYP3A4(pER6)-luc luciferase reporter assay in HepG2 cells
murine Car = conditions: cited from earlier work
CAR-LBD = molecular target: T1, CAR-LBD (Homo sapiens, UniProt Q14994); assay: MARCoNI CAR-LBD coregulator interaction array; format: biochemical; conditions: 100 μM
T1 construct: HIS-tagged CAR-LBD (ThermoFisher Sciences, Cat. No PV4836); purchased ThermoFisher PV4836
Description: The reaction was performed in a fully automated microarray processing and fluorescent imaging platform (PamStation12) at 20 °C for 80 cycles (two cycles per minute). After removal of the unbound CAR-LBD receptor by washing each array with 25 µl Tris-buffered Saline (TBS) buffer, fluorescent images of the PamChip microarrays were obtained using the PamStation12, and then were analyzed for quantification of CAR binding using BioNavigator software (PamGene International B.V.). For data and statistical analysis, BioNavigator was used.
Modulation index (MI) is the log10-transformed relative binding value, which is calculated by the compound’s binding value, relative to the vehicle control (DMSO) binding value.

HepaRG cells = assay: RT-qPCR mRNA expression in differentiated HepaRG cells
Description: as §2, §3, §4

[5] = normal mice, ref 10 of the reply (Dempsey et al.)

T1 sequence (Q14994 109-348 isoform Q14994-2 limits assumed): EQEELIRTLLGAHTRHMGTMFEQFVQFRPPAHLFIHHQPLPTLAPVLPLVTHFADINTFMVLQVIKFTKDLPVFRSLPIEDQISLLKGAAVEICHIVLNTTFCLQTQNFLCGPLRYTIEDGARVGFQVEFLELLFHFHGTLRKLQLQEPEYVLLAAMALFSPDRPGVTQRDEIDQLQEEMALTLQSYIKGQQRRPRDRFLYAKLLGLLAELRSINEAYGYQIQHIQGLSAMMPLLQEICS

Cc1ncc2n1-c1ccc(Cl)cc1C(c1ccccc1F)=NC2 [Midazolam, midazolam]
half-life at 2 µM ([1]; human, s9): 6.3 ± 0.3 min
microsomal CLint at 2 µM ([1]; human, s9): 55 ± 2.5 µL/min/mg
Stability in S9 fraction (human liver), % remaining ([1]; time 0 (min), 2 μM): 100
Stability in S9 fraction (human liver), % remaining ([1]; time 20): 94
Stability in S9 fraction (human liver), % remaining ([1]; time 40): 53
Stability in S9 fraction (human liver), % remaining ([1]; time 60): 18
Stability in S9 fraction (human liver), % remaining ([1]; time 120): 1
half-life [2]: 3.1 min
microsomal CLint [2]: 113 µL/min/mg

CCC1(c2ccccc2)C(=O)NC(=O)NC1=O [Phenobarbital]
CYP2B6 mRNA, RT-qPCR, HepaRG KO CAR (Fig. 1f), replicates (HepaRG KO CAR cells): 2.7 and 1.95 and 2.4

CCOP(=O)(OCC)C(=Cc1cc(C(C)(C)C)c(O)c(C(C)(C)C)c1)P(=O)(OCC)OCC [SR12813]
RT-qPCR in LS174T (Fig 1 l, CYP3A4 mRNA), replicates ([3]; single agent 1μM, ctrl = 1): 1.75 and 3.85 and 3.1
pER6-luc luciferase gene reporter assay (Fig1 m), replicates ([4]; single agent 1μM, ctrl ~1): 6.4 and 6.3 and 4.7
pER6-luc luciferase gene reporter assay (Fig1 m), replicates ([4]; single agent 10μM): 11.93 and 6.55 and 11

Clc1cnc(Oc2ccc(Oc3ncc(Cl)cc3Cl)cc2)c(Cl)c1 [TCPOBOP]
suppression of atherosclerotic lesions in the aortic valves (murine Car; Ldlr –/– mice): 60%
decrease of cholesterol content in the liver (murine Car; after 2 months): 25%
decrease of cholesterol content in the whole body (murine Car; after 2 months): ~50%
increase of fecal excretion of 3H-labeled bile acids (murine Car; mice): ~ 40%
colon bsh activity compared to control animals (murine Car; [5]): 30%
increase of colon unconjugated and total BA pools (not significant) (murine Car; [5]): about 1.4 fold

Clc1ccccc1C(c1ccccc1)(c1ccccc1)n1ccnc1 [clotrimazole, reference compound]
CAR-coregulator interaction profile (CAR-LBD): releasing most of the coactivator proteins

CO[C@H]1/C=C/O[C@@]2(C)Oc3c(C)c(O)c4c(O)c(c(/C=N/N5CCN(C)CC5)c(O)c4c3C2=O)NC(=O)/C(C)=C\C=C\[C@H](C)[C@H](O)[C@@H](C)[C@@H](O)[C@@H](C)[C@H](OC(C)=O)[C@@H]1C [rifampicin, reference compound]
PCSK9 mRNA in HepaRG cells (HepaRG cells; Supplementary Fig. 10b): Marginal effect
SQLE mRNA in HepaRG cells (HepaRG cells; rifampicin (5 μM)): weakly but significantly upregulated

SPA70 [reference compound]
RT-qPCR in LS174T (Fig 1 l, CYP3A4 mRNA), replicates ([3]; Rif 1μM + test compound 10μM): 0.37 and 0.6 and 0.8
RT-qPCR in LS174T (Fig 1 l, CYP3A4 mRNA), replicates ([3]; SR12813 1μM + test compound 10μM): 0.46 and 0.35 and 0.34
RT-qPCR in LS174T (Fig 1 l, CYP3A4 mRNA), replicates ([3]; single agent 10μM): 0.29 and 0.5 and 0.49
basal expression of SQLE mRNA in HepaRG cells (HepaRG cells): downregulated
rifampicin induction of SQLE mRNA in HepaRG cells (HepaRG cells; MI-883 at 1 μM, SPA70): abrogated
CYP2B6 expression relative to control (replicates) (HepaRG cells; SPA70 1 μM): 0.7099 and 0.6385
CYP2B6 expression relative to control (replicates) (HepaRG cells; SPA70 1 μM + CITCO (1 μM)): 0.8 and 0.8395 and 0.9953
CYP2B6 expression relative to control (replicates) (HepaRG cells; SPA70 5 μM): 0.4419 and 0.6247 and 0.5722
CYP2B6 expression relative to control (replicates) (HepaRG cells; SPA70 5 μM + Rif (5 μM)): 0.8063 and 0.705 and 0.7533
CYP3A4 expression relative to control (replicates) (HepaRG cells; SPA70 5 μM + Rif (5 μM)): 1.181 and 0.9078 and 1.057
CYP2B6 expression relative to control (replicates) (HepaRG cells; SPA70 10 μM): 0.4185 and 0.6476 and 0.5707 and 0.3103
CYP2B6 expression relative to control (replicates) (HepaRG cells; SPA70 10 μM + CITCO (1 μM)): 0.9283 and 0.5126 and 0.8752
CYP2B6 expression relative to control (replicates) (HepaRG cells; SPA70 10 μM + Rif (5 μM)): 0.4242 and 0.5514 and 0.5133
CYP3A4 expression relative to control (replicates) (HepaRG cells; SPA70 10 μM + Rif (5 μM)): 0.8451 and 0.9487 and 0.8513 and 0.8231
CYP2B6 expression relative to control (replicates) (HepaRG cells; SPA70 20 μM): 0.8031 and 0.3464
CYP2B6 expression relative to control (replicates) (HepaRG cells; SPA70 20 μM + CITCO (1 μM)): 1.219 and 0.6292 and 0.9541
CYP2B6 expression relative to control (replicates) (HepaRG cells; SPA70 20 μM + Rif (5 μM)): 0.5214 and 0.5645
CYP3A4 expression relative to control (replicates) (HepaRG cells; SPA70 20 μM + Rif (5 μM)): 0.8451 and 0.7532
rifampicin-induced and basal CYP3A4 and CYP2B6 mRNA expression in HepaRG cells (HepaRG cells; Supplementary Fig. 10): suppressed
pER6-luc luciferase gene reporter assay (Fig1 m), replicates ([4]; Rif 1μM + SPA70 10μM): 1.57 and 1.64 and 1.5
pER6-luc luciferase gene reporter assay (Fig1 m), replicates ([4]; SR12813 1μM + SPA70 10μM): 1.2 and 2 and 3.55
pER6-luc luciferase gene reporter assay (Fig1 m), replicates ([4]; single agent 1μM, ctrl ~1): 1.15 and 1.67 and 1.39
pER6-luc luciferase gene reporter assay (Fig1 m), replicates ([4]; single agent 10μM): 1 and 1.1 and 1.26

SPA-70
CYP3A4 expression relative to control (replicates) (HepaRG cells; SPA-70 1 μM): 0.8854 and 0.7984
SQLE expression relative to control (mean) (HepaRG cells; SPA-70 1 μM + Rif (5 μM)): 0.6659
SQLE expression relative to control (mean) (HepaRG cells; SPA-70 1 μM, 48 h): 0.6886
CYP3A4 expression relative to control (replicates) (HepaRG cells; SPA-70 5 μM): 0.7429 and 0.6513 and 0.7215
SQLE expression relative to control (mean) (HepaRG cells; SPA-70 5 μM + Rif (5 μM)): 0.7312
SQLE expression relative to control (mean) (HepaRG cells; SPA-70 5 μM, 24 h): 0.9488
SQLE expression relative to control (mean) (HepaRG cells; SPA-70 5 μM, 48 h): 0.6267
CYP3A4 expression relative to control (replicates) (HepaRG cells; SPA-70 10 μM): 0.443 and 0.6539 and 0.5479 and 0.7562
SQLE expression relative to control (mean) (HepaRG cells; SPA-70 10 μM + Rif (5 μM)): 0.7448
SQLE expression relative to control (mean) (HepaRG cells; SPA-70 10 μM, 24 h): 0.7277
SQLE expression relative to control (mean) (HepaRG cells; SPA-70 10 μM, 48 h): 0.6494
CYP3A4 expression relative to control (replicates) (HepaRG cells; SPA-70 20 μM): 0.5871 and 0.5215
SQLE expression relative to control (mean) (HepaRG cells; SPA-70 20 μM + Rif (5 μM)): 0.8792
SQLE expression relative to control (mean) (HepaRG cells; SPA-70 20 μM, 48 h): 0.7487
